Assay results taken from patent publication US20240150365A1 (Hotspot Therapeutics, Inc., priority 2022, published 2024).
pIC50: −log10 of the molar value.

Experiments:
MALT1 = target: T1, MALT1 (Homo sapiens, UniProt Q9UDY8); assay: MALT-1 Fluorogenic Peptide Cleavage Assay (MALT1 inhibition assay); type: biochemical; details: Avi-tagged FL MALT-1, Ac-LRSR-AMC peptide substrate, 30 min pre-incubation, 90 min reaction
T1 construct: Avi-tagged FL MALT-1 (Pharmaron, stored at −70° C.); Avi tag
T1 sequence (Q9UDY8 1-824): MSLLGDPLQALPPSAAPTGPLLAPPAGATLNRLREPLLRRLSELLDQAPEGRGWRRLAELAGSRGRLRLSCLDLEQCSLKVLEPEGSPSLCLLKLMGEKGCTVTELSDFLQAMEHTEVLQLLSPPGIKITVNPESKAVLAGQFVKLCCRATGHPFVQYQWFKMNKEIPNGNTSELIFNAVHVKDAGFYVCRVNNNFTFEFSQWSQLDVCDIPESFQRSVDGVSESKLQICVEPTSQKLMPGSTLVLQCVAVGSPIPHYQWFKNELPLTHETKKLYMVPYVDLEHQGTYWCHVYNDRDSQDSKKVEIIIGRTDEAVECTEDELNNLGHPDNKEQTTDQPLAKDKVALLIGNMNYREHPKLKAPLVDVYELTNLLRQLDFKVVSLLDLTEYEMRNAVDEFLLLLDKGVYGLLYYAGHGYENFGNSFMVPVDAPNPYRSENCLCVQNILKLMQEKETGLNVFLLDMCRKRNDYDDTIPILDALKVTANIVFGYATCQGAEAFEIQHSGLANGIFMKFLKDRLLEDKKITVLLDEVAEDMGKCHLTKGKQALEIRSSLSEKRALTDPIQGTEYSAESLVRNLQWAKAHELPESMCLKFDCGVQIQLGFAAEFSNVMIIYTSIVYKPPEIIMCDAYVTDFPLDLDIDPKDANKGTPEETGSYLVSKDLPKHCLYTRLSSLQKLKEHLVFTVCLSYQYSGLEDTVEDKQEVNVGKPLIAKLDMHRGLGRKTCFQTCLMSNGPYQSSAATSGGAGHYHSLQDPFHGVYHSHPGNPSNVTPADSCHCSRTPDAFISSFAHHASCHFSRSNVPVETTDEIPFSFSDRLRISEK
Outline: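 Avi-tagged full-length MALT1 pre-incubated 30 min with compound (2% DMSO final), then cleavage of Ac-LRSR-AMC followed over 90 min at room temperature. AMC fluorescence read at 342/441 nm; % inhibition fitted to sigmoidal curves for IC50.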

NF-kB = NF-kB reporter assay in Jurkat cells stimulated with aCD3/aCD28/PMA; type: cell-based; details: Homo sapiens, Jurkat, Jurkat cells, 1 hr compound incubation, aCD3/aCD28/PMA stimulation 4 hr, One-Glo readout; read-out: NF-kB Reporter Assay IC50
Outline: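 Jurkat cells (25,000/well, serum-free RPMI 1640) preincubated 1 hr at 37° C with serially diluted compound, then stimulated with aCD3/aCD28/PMA (final 5 μg/mL, 5 μg/mL, 0.03 μg/mL) for 4 hr. Reporter luminescence read with One-Glo; IC50 derived.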

pIC50 (MALT1) | pIC50 (NF-kB) | Structure (SMILES)
> 6.40 | > 6.40 | COc1ncc2cnn(C)c2c1NS(=O)(=O)c1ccc(-n2cc(C)cn2)nc1 [Example I-184, N-{6-methoxy-1-methylpyrazolo[4,3-c]pyridin-7-yl}-6-(4-methylpyrazol-1-yl)pyridine-3-sulfonamide]
> 6.40 | > 6.40 | COc1ncc2cnn(C)c2c1NS(=O)(=O)c1ccc(-n2ccc(C3CC3)n2)nc1 [Example I-185, 6-(3-cyclopropyl-1H-pyrazol-1-yl)-N-(6-methoxy-1-methyl-1H-pyrazolo[4,3-c]pyridin-7-yl)pyridine-3-sulfonamide]
> 6.40 | > 6.40 | COc1ncc2cnn(C)c2c1NS(=O)(=O)c1ccc(-c2csc(C)n2)nc1 [Example I-186, N-(6-methoxy-1-methyl-1H-pyrazolo[4,3-c]pyridin-7-yl)-6-(2-methylthiazol-4-yl)pyridine-3-sulfonamide]
> 6.40 | > 6.40 | COc1ncc2cnn(C)c2c1NS(=O)(=O)c1ccc(-n2cc(C3CC3)cn2)nc1 [Example I-187, 6-(4-cyclopropylpyrazol-1-yl)-N-{6-methoxy-1-methylpyrazolo[4,3-c]pyridin-7-yl}pyridine-3-sulfonamide]
> 6.40 | > 6.40 | COc1ccc2ccn(C)c2c1NS(=O)(=O)c1ccc(-n2cc(C(F)(F)F)cn2)nc1 [Example I-188, N-(6-methoxy-1-methyl-1H-indol-7-yl)-6-(4-(trifluoromethyl)-1H-pyrazol-1-yl)pyridine-3-sulfonamide]
5.60 to 6.00 | 5.60 to 6.00 | Cc1ncc2cnn(C)c2c1NS(=O)(=O)c1ccc(-n2cc(C(F)(F)F)cn2)nc1 [Example I-189, N-(1,6-dimethyl-1H-pyrazolo[4,3-c]pyridin-7-yl)-6-(4-(trifluoromethyl)-1H-pyrazol-1-yl)pyridine-3-sulfonamide]
< 5.60 | < 5.60 | Cn1[nH]c2cccc(NS(=O)(=O)c3ccc(-n4cc(C(F)(F)F)cn4)nc3)c2c1=O [Example I-190, N-(2-methyl-3-oxo-2,3-dihydro-1H-indazol-4-yl)-6-(4-(trifluoromethyl)-1H-pyrazol-1-yl)pyridine-3-sulfonamide]
> 6.40 | > 6.40 | COc1ccc2cnn(C)c2c1NS(=O)(=O)c1ccc(-n2cc(C(C)(F)F)cn2)nc1 [Example I-191, 6-(4-(1,1-difluoroethyl)-1H-pyrazol-1-yl)-N-(6-methoxy-1-methyl-1H-indazol-7-yl)pyridine-3-sulfonamide]
> 6.40 | > 6.40 | COc1ncc2cnn(C)c2c1NS(=O)(=O)c1ccc(-n2cc(C(F)F)cn2)nc1 [Example I-192, 6-(4-(difluoromethyl)-1H-pyrazol-1-yl)-N-(6-methoxy-1-methyl-1H-pyrazolo[4,3-c]pyridin-7-yl)pyridine-3-sulfonamide]
> 6.40 | > 6.40 | COc1ncc2cnn(C)c2c1NS(=O)(=O)c1ccc(-n2cc(F)cn2)nc1 [Example I-193, 6-(4-fluoro-1H-pyrazol-1-yl)-N-(6-methoxy-1-methyl-1H-pyrazolo[4,3-c]pyridin-7-yl)pyridine-3-sulfonamide]
> 6.40 | > 6.40 | COc1ncc2cnn(C)c2c1NS(=O)(=O)c1ccc(-n2cc(C(C)C)cn2)nc1 [Example I-194, 6-(4-isopropyl-1H-pyrazol-1-yl)-N-(6-methoxy-1-methyl-1H-pyrazolo[4,3-c]pyridin-7-yl)pyridine-3-sulfonamide]
> 6.40 | > 6.40 | COc1ncc2cnn(C)c2c1N(C)S(=O)(=O)c1ccc(-n2ccc(C(F)(F)F)n2)nc1 [Example I-195, N-(6-Methoxy-1-Methyl-1H-Pyrazolo[4,3-C]Pyridin-7-yl)-N-Methyl-6-(3-(Trifluoromethyl)-1H-Pyrazol-1-yl)Pyridine-3-Sulfonamide]
> 6.40 | > 6.40 | COc1ncc2cnn(C)c2c1NS(=O)(=O)c1ccc(-n2ccc(C)n2)nc1 [Example I-197, N-{6-methoxy-1-methylpyrazolo[4,3-c]pyridin-7-yl}-6-(3-methylpyrazol-1-yl)pyridine-3-sulfonamide]
< 5.60 | 5.60 to 6.00 | Cn1[nH]c(=O)c2c(NS(=O)(=O)c3ccc(-n4cc(C(F)(F)F)cn4)nc3)cccc21 [Example I-198, N-(1-methyl-3-oxo-2,3-dihydro-1H-indazol-4-yl)-6-(4-(trifluoromethyl)-1H-pyrazol-1-yl)pyridine-3-sulfonamide]
< 5.60 | 5.60 to 6.00 | Cc1ncc2cccc(NS(=O)(=O)c3ccc(-n4cc(C(F)(F)F)cn4)nc3)n12 [Example I-199, N-(3-methylimidazo[1,5-a]pyridin-5-yl)-6-(4-(trifluoromethyl)-1H-pyrazol-1-yl)pyridine-3-sulfonamide]
> 6.40 | > 6.40 | COc1ncc2cnn(C)c2c1NS(=O)(=O)c1ccc(-c2cc(C(F)(F)F)n[nH]2)nc1 [Example I-200, N-(6-Methoxy-1-Methyl-1H-Pyrazolo[4,3-C]Pyridin-7-yl)-6-(3-(Trifluoromethyl)-1H-Pyrazol-5-yl)Pyridine-3-Sulfonamide]
< 5.60 | < 5.60 | Cn1[nH]c(=O)c2cccc(NS(=O)(=O)c3ccc(-n4cc(C(F)(F)F)cn4)nc3)c21 [Example I-201, N-(1-Methyl-3-Oxo-2,3-Dihydro-1H-Indazol-7-yl)-6-(4-(Trifluoromethyl)-1H-Pyrazol-1-yl)Pyridine-3-Sulfonamide]
6.00 to 6.40 | > 6.40 | COc1ccc2cnn(C)c2c1NS(=O)(=O)c1ccc(-n2cc(C)n(C)c2=O)nc1 [Example I-202, 6-(3,4-Dimethyl-2-Oxo-2,3-Dihydro-1H-Imidazol-1-yl)-N-(6-Methoxy-1-Methyl-1H-Indazol-7-yl)Pyridine-3-Sulfonamide]
< 5.60 | > 6.40 | COc1ccc(Cc2ccc3c(c2N)c(=O)n(S(=O)(=O)c2ccc(-n4cc(C(F)(F)F)cn4)nc2)n3C)cc1 [Example I-203]
> 6.40 | 5.60 to 6.00 | COc1ncc2cnn(C)c2c1NS(=O)(=O)c1ccc(-c2cc(C(F)F)n[nH]2)nc1 [Example I-204, 6-(3-(Difluoromethyl)-1H-Pyrazol-5-yl)-N-(6-Methoxy-1-Methyl-1H-Pyrazolo[4,3-C]Pyridin-7-yl)Pyridine-3-Sulfonamide]
5.60 to 6.00 | 5.60 to 6.00 | COc1ncc2cnn(C)c2c1NS(=O)(=O)c1ccc(-c2cc(C3CC3)n[nH]2)nc1 [Example I-205, 6-(3-Cyclopropyl-1H-Pyrazol-5-yl)-N-(6-Methoxy-1-Methyl-1H-Pyrazolo[4,3-C]Pyridin-7-yl)Pyridine-3-Sulfonamide]
> 6.40 | > 6.40 | [2H]C([2H])([2H])n1ncc2ccc(OC)c(NS(=O)(=O)c3ccc(-n4cc(C)cn4)nc3)c21 [Example I-206, N-(6-Methoxy-1-(Methyl-D3)-1H-Indazol-7-yl)-6-(4-Methyl-1H-Pyrazol-1-yl)Pyridine-3-Sulfonamide]
5.60 to 6.00 | > 6.40 | Cn1ncc2cccc(NS(=O)(=O)c3ccc(-n4ccc(C5CC5)n4)nc3)c21 [Example I-207, 6-(3-Cyclopropyl-1H-Pyrazol-1-yl)-N-(1-Methyl-1H-Indazol-7-yl)Pyridine-3-Sulfonamide]
5.60 to 6.00 | > 6.40 | Cn1ncc2cccc(NS(=O)(=O)c3ccc(-n4cc(C5CC5)cn4)nc3)c21 [Example I-208, 6-(4-Cyclopropyl-1H-Pyrazol-1-yl)-N-(1-Methyl-1H-Indazol-7-yl)Pyridine-3-Sulfonamide]
< 5.60 | > 6.40 | Cn1ccn(-c2ccc(S(=O)(=O)Nc3cccc4cnn(C)c34)cn2)c1=O [Example I-209, N-(1-Methyl-1H-Indazol-7-yl)-6-(3-Methyl-2-Oxo-2,3-Dihydro-1H-Imidazol-1-yl)Pyridine-3-Sulfonamide]
< 5.60 | > 6.40 | COc1ccc(-c2ccc(S(=O)(=O)Nc3cccc4cnn(C)c34)cn2)cn1 [Example I-210, 6′-Methoxy-N-(1-Methyl-1H-Indazol-7-yl)-[2,3′-Bipyridine]-5-Sulfonamide]
< 5.60 | 6.00 to 6.40 | COc1ncc2cnn(C)c2c1NS(=O)(=O)c1ccc(-n2nccc2C(F)(F)F)nc1 [Example I-211, N-(6-Methoxy-1-Methyl-1H-Pyrazolo[4,3-C]Pyridin-7-yl)-6-(5-(Trifluoromethyl)-1H-Pyrazol-1-yl)Pyridine-3-Sulfonamide]
